{
  "source": "patent US20130079749A1",
  "about": "“Modular Drug Delivery System for Minimizing Trauma During and After Insertion of a Cochlear Lead” (ADVANCED BIONICS, LLC, priority 2007, published 2013)",
  "key": {"auditory hair cells": {"system": "auditory hair cells", "test": "Organ of Corti photomicrographs thirty days after electrode insertion trauma", "type": "in vivo, guinea pig", "conditions": "lower middle turn of cochlea, thirty days after EIT, FIG. 11 microphotograph D", "from_the_text": "The efficacy of DXMb was also studied by the Applicants in relationship to preserving residual hearing and internal nerve structures within the cochlea. In the study performed by the Applicants, 88 ears of 44 pigmented guinea pigs of 250 to 300 grams were randomly assigned to one of four groups as follows: group 1 corresponded to the contralateral, unoperated ears from groups 2 to 4 animals (n=44). Group 2 (n=15): electrode insertion trauma (EIT); these ears underwent EIT only via a cochleostomy and then immediate closure. Group 3 (n=15): EIT+artificial perilymph (EIT+AP) treated ears received EIT and immediately after trauma, insertion of a microcatheter into the cochleostomy site with AP perfused into the scala tympani (ST) for a period of 8 days. Group 4 (n=14): EIT dexamethasone base (EIT=DXMb) treated animals underwent EIT followed immediately by insertion of a microcatheter into the cochleostomy with ST perfusion of DXMb ([…]) in AP for a period of 8 days. Hearing measurements were performed before surgery, as well as on post-EIT days 0, 3, 7, 14, and 30. Tone bursts of 0.5, 1, 4, and 16 kHz were delivered to the ear at a rate of 29 Hz. The intensity of the stimulation was decreased by 10 dB sound pressure level (SPL) decrements until no auditory brainstem response was identified.\nThe organization of hair cells is in three distinct rows. […]"}, "[1]": {"test": "Solubility of dexamethasone forms", "type": "physicochemical"}, "[2]": {"test": "In-vivo comparison of DXMb and DEX salt delivered over a week", "method": "In one study performed by the Applicants, a comparison of DXMb and DEX salt was performed in an in-vivo model over the prior of a week. […] This surprising potency allows for increased therapeutic effects without increasing the volume of the drug or the size of the intracochlear lead."}},
  "data": [
    {"compound": "C[C@@H]1C[C@H]2[C@@H]3CCC4=CC(=O)C=C[C@]4(C)[C@@]3(F)[C@@H](O)C[C@]2(C)[C@@]1(O)C(=O)CO", "note": "[DXMb, dexamethasone base]", "values": [
      {"measurement": "hair cells and hair cell structure", "setting": "auditory hair cells", "value": "substantially similar to that of the control group"},
      {"measurement": "solubility in aqueous preparations", "setting": "[1]; aqueous preparations", "value": "limited solubility in aqueous preparations"},
      {"measurement": "solubility in organic solvents", "setting": "[1]; organic solvents", "value": "highly soluble in organic solvents"},
      {"measurement": "effectiveness compared with DEX salt", "setting": "[2]; DXMb 1 μL/hr at 70 μL/ml vs DEX salt 100 μL/ml at 1 μL/hr, in-vivo model, one week", "value": "just as effective"},
      {"measurement": "potency compared with salt forms of dexamethasone", "setting": "[2]; administered into the intracochlear space after implantation surgeries", "value": "surprisingly more potent than salt forms of dexamethasone"}
    ]}
  ]
}
